Test results reported in patent US8796289B2 (AbbVie Inc., priority 2011, dated 2014).
Like-named read-outs stand apart in the source and are kept apart here.

Molecular target: GST-tagged-Wee1 kinase (Homo sapiens, UniProt P30291)
Test: Wee1 time-resolved fluorescence equilibrium binding assay (displacement of Oregon Green-labeled ATP-competitive kinase probe)
Method: Wee1 kinase was assayed using a time-resolved fluorescence equilibrium binding assay monitoring displacement of a rapidly reversible Oregon Green-labeled ATP-competitive kinase probe (N-(2-(2-(2-(4-(4-(5-chloro-4-(2-(1-hydroxycyclobutyl)thiazol-5-yl)-1H-pyrrolo[2,3-b]pyridin-2-yl)phenyl)piperazin-1-yl)ethoxy)ethoxy)ethyl)-2′,7′-difluoro-3′,6′-dihydroxy-3-oxo-3H-spiro[isobenzofuran-1,9′-xanthene]-5-carboxamide) by competitive Wee1 inhibitors.

GST-tagged-Wee1 kinase, sequence (P30291 whole entry): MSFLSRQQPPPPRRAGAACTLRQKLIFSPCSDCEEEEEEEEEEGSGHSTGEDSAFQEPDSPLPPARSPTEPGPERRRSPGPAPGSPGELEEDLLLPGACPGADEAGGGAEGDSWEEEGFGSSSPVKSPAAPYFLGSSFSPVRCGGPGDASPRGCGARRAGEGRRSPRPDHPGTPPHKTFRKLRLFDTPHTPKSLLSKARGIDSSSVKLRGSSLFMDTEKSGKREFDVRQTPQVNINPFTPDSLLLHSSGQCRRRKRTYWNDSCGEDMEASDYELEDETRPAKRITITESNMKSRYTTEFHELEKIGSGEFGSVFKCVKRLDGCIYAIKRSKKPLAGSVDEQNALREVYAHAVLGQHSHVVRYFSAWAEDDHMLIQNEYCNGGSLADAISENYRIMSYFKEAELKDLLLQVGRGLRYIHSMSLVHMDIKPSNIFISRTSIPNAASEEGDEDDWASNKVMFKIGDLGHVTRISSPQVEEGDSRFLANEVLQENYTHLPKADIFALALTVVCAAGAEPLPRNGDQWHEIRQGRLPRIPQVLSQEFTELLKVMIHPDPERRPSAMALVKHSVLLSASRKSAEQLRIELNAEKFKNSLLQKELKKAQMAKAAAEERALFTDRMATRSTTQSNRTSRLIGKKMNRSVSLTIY

In the case of Cn1cnc(-c2nn(-c3c(Cl)cncc3Cl)c(=O)c3cnc(Nc4ccc5c(c4)CNCC54CC4)nc23)c1 [Example 372, 6-(3,5-dichloropyridin-4-yl)-2-(2′,3′-dihydro-1′H-spiro[cyclopropane-1,4′-isoquinolin]-7′-ylamino)-8-(1-methyl-1H-imidazol-4-yl)pyrimido[4,5-d]pyridazin-5(6H)-one], the Ki is reported as 3.7 nM.
Cn1cnc(-c2nn(-c3ccncc3Cl)c(=O)c3cnc(Nc4ccc5c(c4)CNCC54CC4)nc23)c1 [Example 373, 6-(3-chloropyridin-4-yl)-2-(2′,3′-dihydro-1′H-spiro[cyclopropane-1,4′-isoquinolin]-7′-ylamino)-8-(1-methyl-1H-imidazol-4-yl)pyrimido[4,5-d]pyridazin-5(6H)-one] showed a Ki of 69 nM.
CC(=O)N1CCN(c2ccc(Nc3ncc4c(=O)n(-c5c(Cl)cccc5Cl)nc(-c5ccccn5)c4n3)cc2)CC1 [Example 374, 2-{[4-(4-acetylpiperazin-1-yl)phenyl]amino}-6-(2,6-dichlorophenyl)-8-(pyridin-2-yl)pyrimido[4,5-d]pyridazin-5(6H)-one] gave a Ki of 0.67 nM.
For CC(=O)N1Cc2cc(Nc3ncc4c(=O)n(-c5c(Cl)cccc5Cl)nc(-c5ccccn5)c4n3)ccc2C2(CC2)C1 [Example 375, 2-[(2′-acetyl-2′,3′-dihydro-1′H-spiro[cyclopropane-1,4′-isoquinolin]-7′-yl)amino]-6-(2,6-dichlorophenyl)-8-(pyridin-2-yl)pyrimido[4,5-d]pyridazin-5(6H)-one], the Ki was 1.2 nM.
CS(=O)(=O)N1CCN(c2ccc(Nc3ncc4c(=O)n(-c5c(Cl)cccc5Cl)nc(-c5ccccn5)c4n3)cc2)CC1 [Example 376, 6-(2,6-dichlorophenyl)-2-({4-[4-(methylsulfonyl)piperazin-1-yl]phenyl}amino)-8-(pyridin-2-yl)pyrimido[4,5-d]pyridazin-5(6H)-one] gave a Ki of 1.3 nM.
Molecule CS(=O)(=O)N1Cc2cc(Nc3ncc4c(=O)n(-c5c(Cl)cccc5Cl)nc(-c5ccccn5)c4n3)ccc2C2(CC2)C1 [Example 377, 6-(2,6-dichlorophenyl)-2-{[2′-(methylsulfonyl)-2′,3′-dihydro-1′H-spiro[cyclopropane-1,4′-isoquinolin]-7′-yl]amino}-8-(pyridin-2-yl)pyrimido[4,5-d]pyridazin-5(6H)-one] has a Ki of 1.3 nM.
CC(=O)N1CCN(c2ccc(Nc3ncc4c(=O)n(-c5c(Cl)cccc5Cl)nc(-c5ccncc5)c4n3)cc2)CC1 [Example 378, 2-{[4-(4-acetylpiperazin-1-yl)phenyl]amino}-6-(2,6-dichlorophenyl)-8-(pyridin-4-yl)pyrimido[4,5-d]pyridazin-5(6H)-one] gave a Ki of 0.49 nM.
CC(=O)N1Cc2cc(Nc3ncc4c(=O)n(-c5c(Cl)cccc5Cl)nc(-c5ccncc5)c4n3)ccc2C2(CC2)C1 [Example 379, 2-[(2′-acetyl-2′,3′-dihydro-1′H-spiro[cyclopropane-1,4′-isoquinolin]-7′-yl)amino]-6-(2,6-dichlorophenyl)-8-(pyridin-4-yl)pyrimido[4,5-d]pyridazin-5(6H)-one] gave a Ki of 0.45 nM.
CS(=O)(=O)N1CCN(c2ccc(Nc3ncc4c(=O)n(-c5c(Cl)cccc5Cl)nc(-c5ccncc5)c4n3)cc2)CC1 [Example 380, 6-(2,6-dichlorophenyl)-2-({4-[4-(methylsulfonyl)piperazin-1-yl]phenyl}amino)-8-(pyridin-4-yl)pyrimido[4,5-d]pyridazin-5(6H)-one] was tested, and the Ki was 0.61 nM.
Work on CS(=O)(=O)N1Cc2cc(Nc3ncc4c(=O)n(-c5c(Cl)cccc5Cl)nc(-c5ccncc5)c4n3)ccc2C2(CC2)C1 [Example 381, 6-(2,6-dichlorophenyl)-2-{[2′-(methylsulfonyl)-2′,3′-dihydro-1′H-spiro[cyclopropane-1,4′-isoquinolin]-7′-yl]amino}-8-(pyridin-4-yl)pyrimido[4,5-d]pyridazin-5(6H)-one] yielded a Ki of 0.81 nM.
In the case of CN1CCN(c2ccc(Nc3ncc4c(=O)n(-c5ccncc5Cl)nc(-c5ccncc5)c4n3)cc2)CC1 [Example 382, 6-(3-chloropyridin-4-yl)-2-{[4-(4-methylpiperazin-1-yl)phenyl]amino}-8-(pyridin-4-yl)pyrimido[4,5-d]pyridazin-5(6H)-one], the Ki is reported as 7.6 nM.
For O=c1c2cnc(Nc3ccc4c(c3)CNCC43CC3)nc2c(-c2ccncc2)nn1-c1ccncc1Cl [Example 383, 6-(3-chloropyridin-4-yl)-2-(2′,3′-dihydro-1′H-spiro[cyclopropane-1,4′-isoquinolin]-7′-ylamino)-8-(pyridin-4-yl)pyrimido[4,5-d]pyridazin-5(6H)-one], the Ki was 1.1 nM.
CN1CCN(c2ccc(Nc3ncc4c(=O)n(-c5ccncc5Cl)nc(-c5ccccn5)c4n3)cc2)CC1 [Example 384, 6-(3-chloropyridin-4-yl)-2-{[4-(4-methylpiperazin-1-yl)phenyl]amino}-8-(pyridin-2-yl)pyrimido[4,5-d]pyridazin-5(6H)-one] gave a Ki of 13 nM.
O=c1c2cnc(Nc3ccc4c(c3)CNCC43CC3)nc2c(-c2ccccn2)nn1-c1ccncc1Cl [Example 385, 6-(3-chloropyridin-4-yl)-2-(2′,3′-dihydro-1′H-spiro[cyclopropane-1,4′-isoquinolin]-7′-ylamino)-8-(pyridin-2-yl)pyrimido[4,5-d]pyridazin-5(6H)-one] showed a Ki of 7.2 nM.
CN1CCN(c2ccc(Nc3ncc4c(=O)n(-c5c(Cl)cccc5Cl)nc(C5CC5)c4n3)cc2)CC1 [Example 386, 8-cyclopropyl-6-(2,6-dichlorophenyl)-2-{[4-(4-methylpiperazin-1-yl)phenyl]amino}pyrimido[4,5-d]pyridazin-5(6H)-one] gave a Ki of 0.48 nM.
CCc1nn(-c2c(Cl)cccc2Cl)c(=O)c2cnc(Nc3ccc(N4CCN(C)CC4)cc3)nc12 [Example 388, 6-(2,6-dichlorophenyl)-8-ethyl-2-{[4-(4-methylpiperazin-1-yl)phenyl]amino}pyrimido[4,5-d]pyridazin-5(6H)-one] gave a Ki of 0.33 nM.
With CN1Cc2cc(Nc3ncc4c(=O)n(-c5c(Cl)cccc5Cl)nc(C5CC5)c4n3)ccc2C2(CC2)C1 [Example 389, 8-cyclopropyl-6-(2,6-dichlorophenyl)-2-[(2′-methyl-2′,3′-dihydro-1′H-spiro[cyclopropane-1,4′-isoquinolin]-7′-yl)amino]pyrimido[4,5-d]pyridazin-5(6H)-one] the Ki was 0.28 nM.
O=c1c2cnc(Nc3ccc4c(c3)CNCC4)nc2c(C2CC2)nn1-c1c(Cl)cccc1Cl [Example 390, 8-cyclopropyl-6-(2,6-dichlorophenyl)-2-(1,2,3,4-tetrahydroisoquinolin-7-ylamino)pyrimido[4,5-d]pyridazin-5(6H)-one] showed a Ki of 0.41 nM.
O=c1c2cnc(Nc3ccc4c(c3)CNCC43CC3)nc2c(C2CC2)nn1-c1c(Cl)cccc1Cl [Example 391, 8-cyclopropyl-6-(2,6-dichlorophenyl)-2-(2′,3′-dihydro-1′H-spiro[cyclopropane-1,4′-isoquinolin]-7′-ylamino)pyrimido[4,5-d]pyridazin-5(6H)-one] gave a Ki of 0.93 nM.
In the case of O=c1c2cnc(Nc3ccc(N4CCNCC4)cc3)nc2c(C2CC2)nn1-c1c(Cl)cccc1Cl [Example 392, 8-cyclopropyl-6-(2,6-dichlorophenyl)-2-{[4-(piperazin-1-yl)phenyl]amino}pyrimido[4,5-d]pyridazin-5(6H)-one], the Ki is reported as 0.27 nM.
Cc1nn(-c2c(Cl)cccc2Cl)c(=O)c2cnc(Nc3ccc(N4CCNCC4)cc3)nc12 [Example 393, 6-(2,6-dichlorophenyl)-8-methyl-2-{[4-(piperazin-1-yl)phenyl]amino}pyrimido[4,5-d]pyridazin-5(6H)-one] gave a Ki of 1 nM.
For Cc1nn(-c2c(Cl)cccc2Cl)c(=O)c2cnc(Nc3ccc4c(c3)CNCC4)nc12 [Example 395], the Ki (read-out: Wee-1 inhibition Ki) was 1 nM.
Cc1nn(-c2c(F)cccc2Cl)c(=O)c2cnc(Nc3ccc(N4CCNCC4)cc3)nc12 [Example 396, 6-(2-chloro-6-fluorophenyl)-8-methyl-2-{[4-(piperazin-1-yl)phenyl]amino}pyrimido[4,5-d]pyridazin-5(6H)-one] was tested, and the Ki was 1 nM.
For Cc1nn(-c2c(Cl)cccc2Cl)c(=O)c2cnc(Nc3ccc4c(c3)CC(N(C)C)C4)nc12 (centres unmarked) [Example 397, 6-(2,6-dichlorophenyl)-2-{[2-(dimethylamino)-2,3-dihydro-1H-inden-5-yl]amino}-8-methylpyrimido[4,5-d]pyridazin-5(6H)-one], the Ki was 1 nM.
Cc1nn(-c2c(F)cccc2Cl)c(=O)c2cnc(Nc3ccc4c(c3)CNCC4)nc12 [Example 398, 6-(2-chloro-6-fluorophenyl)-8-methyl-2-(1,2,3,4-tetrahydroisoquinolin-7-ylamino)pyrimido[4,5-d]pyridazin-5(6H)-one] showed a Ki of 1 nM.
Molecule Cc1nn(-c2ncccc2Cl)c(=O)c2cnc(Nc3ccc(N4CCNCC4)cc3)nc12 [Example 399, 6-(3-chloropyridin-2-yl)-8-methyl-2-{[4-(piperazin-1-yl)phenyl]amino}pyrimido[4,5-d]pyridazin-5(6H)-one] has a Ki of 18 nM.
In the case of Cc1nn(-c2ncccc2Cl)c(=O)c2cnc(Nc3ccc4c(c3)CNCC4)nc12 [Example 400, 6-(3-chloropyridin-2-yl)-8-methyl-2-(1,2,3,4-tetrahydroisoquinolin-7-ylamino)pyrimido[4,5-d]pyridazin-5(6H)-one], the Ki is reported as 6.7 nM.
Cc1nn(-c2c(Cl)cccc2Cl)c(=O)c2cnc(Nc3ccc4c(c3)CN(C)CC43CC3)nc12 [Example 401, 6-(2,6-dichlorophenyl)-8-methyl-2-[(2′-methyl-2′,3′-dihydro-1′H-spiro[cyclopropane-1,4′-isoquinolin]-7′-yl)amino]pyrimido[4,5-d]pyridazin-5(6H)-one] showed a Ki of 0.22 nM.
For CCc1nn(-c2c(Cl)cccc2Cl)c(=O)c2cnc(Nc3ccc4c(c3)CN(C)CC43CC3)nc12 [Example 402, 6-(2,6-dichlorophenyl)-8-ethyl-2-[(2′-methyl-2′,3′-dihydro-1′H-spiro[cyclopropane-1,4′-isoquinolin]-7′-yl)amino]pyrimido[4,5-d]pyridazin-5(6H)-one], the Ki was 0.23 nM.
